From patent publication US9044403B2, “Sporicidal hand sanitizing lotion” (Medivators Inc., priority 2008, dated 2015)

Test: Fragrance screen for chemical compatibility with a PAA solution
Assay type: physicochemical
Procedure: A number of fragrances were tested with a PAA solution to screen for chemical compatibility. […] Additionally, “Blackberry Sage Tea” fragrance in combination with the vinegar-like order from the PAA in the sample was not appealing to volunteers who agreed to sample the sample lotion formulation.

| SMILES | Time within which the fragrance degrades PAA [days] |
| --- | --- |
| CC/C=C\CCO [cis-3-hexen-1-ol] | 3 to 5 |
| CC(=O)OCCC(C)CCC=C(C)C (stereo not drawn) [citronellyl acetate] | 3 to 5 |
| CC(=O)OC/C=C(/C)CCC=C(C)C [neryl acetate] | 3 to 5 |
